Experimental data published in US20250263370A1 (Tay Therapeutics Limited, priority 2022, published 2025).
Values after ≈ are worked out from the molar mass of the structure shown.

How the values were obtained:
BRD4 BD2 = BRD4 BD2 (Homo sapiens (Human), UniProt O60885); assay: NanoBRET bromodomain assay, NanoLuc-BRD4-BD2 fusion in HEK293 cells; conditions: for IC50: BRD4 BD2 (IC50), NanoBRET, HEK293 cells, top concentration 10 μM; for Fold selectivity: IC50 for BRD4 BD1 divided by IC50 for BRD4 BD2, qualitative if an IC50 is at the upper limit;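 on all read-outs here: tracer displacement BRET read in transfected cells after 2 h compound exposure at 37 °C, signal in milliBRET units corrected against no-tracer background wells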
[1] = Thermodynamic solubility in FaSSIF pH 6.5 buffer; format: physicochemical; conditions: FaSSIF buffer, 25 °C, pH 6.5, fassif, thermodynamic from solid; for solubility thermodynamic: Method 2 (LCMS, 25° C.)
Experimental: FaSSIF v2 buffer is freshly prepared prior to use according to the suppliers' instructions and the pH adjusted to 6.5 using 1 M NaOH or 1 M HCl as required. From 1 mM working solution of test compound in DMSO, the λmax of the test compound is determined by scanning from 200 nm to 700 nm, in 1 nm steps with an EPOCH UV/Visible spectrophotometer (Biotek Instruments Inc.). A 12-point standard curve of compound concentration versus absorption at λmax is generated via two-fold serial dilutions of the 1 mM working solution with DMSO. Approximately 1 mg of test compound is accurately weighed into an Eppendorf tube and the appropriate volume of FaSSIF buffer is added to make a nominal concentration of 1 mg/mL. The tube is incubated on a rotator at 20 rpm, 25° C. for 24 hrs. Samples are then filtered using 0.45 μm filters (Sartorious, CAT #1776C) and the filtrate subjected to UV-vis spectroscopy analysis. The absorption at λmax is compared to the standard curve to determine the concentration of compound in solution after 24 hours.
FaSSIF buffer was prepared according to the suppliers' instructions and the pH adjusted to 6.5 using 1 M NaOH or 1 M HCl as required. […] A stir stick was added to each vial and vials sealed with a moulded PTDE/SIL 96-well plate cover. The plate was shaken at 25° C. at 1,100 rpm using an Eppendorf Thermomixer Comfort plate shaker. The plates were filtered using a vacuum manifold and diluted with a mixture of H2O and acetonitrile containing internal standard. The concentration of the test compound in the filtrate was determined by LCMS analysis with reference to the internal standards to determine the solubility in the buffer.

[2] = Plasma stability assay, mouse plasma; format: in vitro ADME; conditions: Method 1 (5 μM)
Experimental: (§1) From stock solution of compound in 10 mM DMSO, a working solution of 1 mM is prepared by diluting the compound in DMSO. To 398 μL of plasma pre-warmed at 37° C. for 15 minutes), 2 μL of working solution of compound is added, resulting in a final concentration of 5 μM (0.5% DMSO) for the compound. The sample is then incubated at 37° C. Aliquot is withdrawn at specified time-points (0, 15, 30, 60 and 120 mins). The reaction is stopped by addition of 450 μL cold acetonitrile containing internal standard (IS). […] Aliquots of the supernatant is analysed using LC-MS/MS. The percent remaining of the compound at each time point is calculated with respect to the control sample (0 min time-point).
(§2) A working solution of compound (500 μM) is prepared in DMSO (100%). To 735 μL of plasma, 15 μL of working solution of compound is added—resulting in a final concentration of 10 μM (2% DMSO) for the compound. The sample is then incubated at 37° C. Aliquot is withdrawn at time-points—0, 15, 30, 60, 90 and 120 mins. The reaction is stopped by using chilled acetonitrile containing internal standard (IS). The samples are centrifuged and the supernatants analyzed using LC-MS/MS. The percent remaining of the compound at each time point is calculated with respect to the control sample (0 min time-point).

[3] = Intrinsic clearance in liver microsomes, rat; format: in vitro ADME; conditions: rat, liver microsomes, pH 7.4, rat liver microsomes, Method 1; read-out: Half-Life (T1/2) (min), Rat
In short: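 Compound at 1 μM (0.1–1% DMSO) incubated at 37 °C with mouse or rat liver microsomes (0.5 mg/mL protein) and 1 mM NADPH in PBS pH 7.4; samples taken up to 60 min and quenched in cold acetonitrile. LC-MS/MS of percent remaining gave half-life and CLint; no-NADPH controls run.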

[4] = Intrinsic clearance in liver microsomes, mouse; format: in vitro ADME; conditions: pH 7.4, Method 1, read-out: Half-Life (T1/2) (min), Mouse
Experimental: From stock solution of compound on 10 mM DMSO, a working solution of 0.1 mM is prepared by diluting the compound in DMSO. 6.25 μL of a 20 mg/mL solution of microsomes in PBS pH 7.4 buffer is added to 216.25 μL PBS pH 7.4 buffer (final microsome concentration—0.5 mg/mL). 25 μL of 10 mM solution of NADPH in PBS pH 7.4 buffer is added to the incubations (final NADPH concentration—1 mM). The mixture is pre-warmed to 37° C. for 10 minutes. 2.5 μL of test compound working solution is added (final compound concentration—1 μM with 1% DMSO). Aliquots of 30 μL are taken from the reaction solution at 0.5, 5, 15, 30 and 60 minutes. The reaction was stopped by the addition of 5 volumes of cold acetonitrile with IS (100 nM alprazolam, 200 nM caffeine and 100 nM tolbutamide). Samples were centrifuged at 3, 220 g for 40 minutes. Aliquots of 100 μL of the supernatant are mixed with 100 μL of ultra-pure H2O and used for LC-MS/MS analysis. The percent compound remaining at each time point is calculated with respect to that of the 0.5 min sample. The data are analysed to calculate half-life. Control experiments are run without NADPH and blank samples are prepared using DMSO without the test compound.
A 50 mM stock solution (in DMSO) is prepared for the compound. From the stock solution, a working solution of 0.5 mM is prepared by diluting the compound in DMSO. This concentration of working solution is prepared considering a final concentration of 1 uM with 0.1% DMSO. The compound (1 μL of working solution) is spiked in PBS with pH 7.4 ([…]) at a concentration of 1 μM. Subsequently, 110 μL of 10 mM NADPH is added (as a co-factor). The sample is incubated at 37° C. for 15 min. Following this, pre-warmed liver microsomes (27.5 μL; final protein conc. 0.5 mg/mL) are added. The samples are then incubated at 37° C. Aliquots of samples are withdrawn at 0, 5, 15, 30, 45 and 60 min. The reaction is stopped by using chilled acetonitrile containing internal standard. The samples are centrifuged, and the supernatants analysed by LC-MS/MS. The percent compound remaining at each time point is calculated with respect to that of the 0 min sample. The data are then analysed to calculate half-life and intrinsic clearance (CLint). Control experiments are run without NADPH and blank samples are prepared using DMSO without the test compound.

[5] = Plasma stability assay, rat plasma; format: in vitro ADME
In short: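 Compound at 5 μM final (0.5% DMSO) in one protocol or 10 μM (2% DMSO) in the other, incubated in plasma at 37° C.; samples taken 0–120 min and quenched with cold acetonitrile plus internal standard. LC-MS/MS gives percent remaining relative to the 0-min sample.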

[6] = Sprague-Dawley rat pharmacokinetics, IV and PO cassette dosing; format: in vivo; conditions: for PO F: PO 5 mg/kg; for half-life: male, Sprague-Dawley, rat, plasma, iv, 1 mg/kg, Method 1, read-out: IV T1/2 (converted)
In short: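 Male Sprague-Dawley rats (2 per arm) given up to 5 compounds in cassette, 1 mg/kg IV and 5 mg/kg PO, formulated in 5% DMSO/40% PEG-400/55% water. Plasma from serial blood samples was acetonitrile-precipitated and analysed by LC/MS/MS against matrix-matched standard curves.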

BRD4 BD1 = BRD4 BD1 (Homo sapiens (Human), UniProt O60885); assay: NanoBRET bromodomain assay, NanoLuc-BRD4-BD1 fusion in HEK293 cells; format: cell-based; conditions: top concentration 10 μM
[7] = Plasma stability assay, human plasma; format: in vitro ADME; conditions: Method 1 (5 μM)
Experimental: as §1, §2

IC50 (BRD4 BD2) | Fold selectivity (BRD4 BD2) | solubility thermodynamic at 24 h ([1]; Method 1 (UV-vis, 25° C., 24 hrs)) | Plasma Stability (% remaining at 120 minutes), Mouse [2] | half-life at 1 μM [3] | half-life at 1 μM [4] | Plasma Stability (% remaining at 120 minutes), Rat ([5]; Method 1 (5 μM)) | PO F ([6]; Method 1) | half-life ([6]; IV 1 mg/kg) | IC50 (BRD4 BD1) | Plasma Stability (% remaining at 120 minutes), Human [7] | solubility thermodynamic [1] | Plasma Stability (% remaining at 120 minutes), Rat ([5]; Method 2 (10 μM)) | IV T1/2 ([6]; IV 1 mg/kg, Method 1) | Structure (SMILES)
50 to 200 nM | XX (Fold >50 and ≤200) | 418 µM (≈ 161 µg/mL) | 93% | > 60 min | 70 min | >99% | 60% | 1.4 h | ≥ 10000 nM | >99% | – | – | – | CNC(=O)c1[nH]c(C(=O)N[C@H]2CC[C@H](O)CC2)cc1OC(C)c1ccccc1 (single isomer, unassigned) [Example 97, N^5-(trans-4-hydroxycyclohexyl)-N^2-methyl-3-(1-phenylethoxy)-1H-pyrrole-2,5-dicarboxamide]
50 to 200 nM | XX (Fold >50 and ≤200) | – | – | > 60 min | – | – | 70% | – | ≥ 10000 nM | – | 635 µM (≈ 219 µg/mL) | 50% | 1.1 h | CNC(=O)c1[nH]c(C(=O)NC2CC2)cc1O[C@@H](C)c1ccccc1F [Example 59, (S)—N^5-cyclopropyl-3-(1-(2-fluorophenyl)ethoxy)-N^2-methyl-1H-pyrrole-2,5-dicarboxamide]
< 50 nM | XXX (Fold >200) | – | – | > 60 min | – | – | 8% | 0.5 h | ≥ 10000 nM | – | 320 µM (≈ 116 µg/mL) | 82% | – | CNC(=O)c1[nH]c(C(=O)NC2CC2)cc1O[C@@H](C)c1ccc(Cl)cc1 [Example 62, (S)-3-(1-(4-chlorophenyl)ethoxy)-N^5-cyclopropyl-N^2-methyl-1H-pyrrole-2,5-dicarboxamide]
